Columns and labels:
[1] = Ratio of drug level in spleen to plasma in female Beagle dog at 400 mg/kg, sc after 3 months; assay type: ADME, organism-based, Canis lupus familiaris; design: dose 400 mg/kg, route subcutaneous
[2] = Drug level in female Beagle dog spleen at 400 mg/kg administered intramuscularly after 3 months; assay type: ADME, organism-based, Canis lupus familiaris; design: dose 400 mg/kg, route intramuscular; settings: im, read-out: Drug uptake
[3] = Ratio of drug level in lymph node mandibular to plasma in Beagle dog at 5 mg/kg, sc after 6 months; assay type: ADME, organism-based, Canis lupus familiaris; design: dose 5 mg/kg, route subcutaneous
Canis familiaris [4] = assay: Toxicity in Beagle dog assessed as irritation at 20 mg/kg administered intramuscularly after 3 months; assay type: organism-based, Canis lupus familiaris; design: dose 20 mg/kg, route intramuscular; settings: in vivo, im, 2191.5 h
[5] = Cmax in male dog at 200 mg, sc after 29 days; settings: in vivo
[6] = Tmax in female dog at 400 mg administered intramuscularly after 85 days; settings: in vivo, im
[7] = Tmax in female dog at 400 mg administered intramuscularly after 29 days; settings: in vivo, im
[8] = Drug level in Beagle dog muscle at non-injected site at 5 mg/kg, sc after 6 months; assay type: ADME, organism-based, Canis lupus familiaris, Muscle tissue; design: dose 5 mg/kg, route subcutaneous; settings: read-out: Drug uptake
[9] = Drug level in Beagle dog muscle at injected site at 5 mg/kg, sc after 6 months; assay type: ADME, organism-based, Canis lupus familiaris, Muscle tissue; design: dose 5 mg/kg, route subcutaneous; settings: read-out: Drug uptake
[10] = Ratio of drug level in thymus to plasma in male Beagle dog at 200 mg/kg administered intramuscularly after 1 month; assay type: ADME, organism-based, Canis lupus familiaris; design: dose 200 mg/kg, route intramuscular; settings: im
[11] = Ratio of drug level in lymph node popliteal to plasma in Beagle dog at 5 mg/kg, sc after 1 month; assay type: ADME, organism-based, Canis lupus familiaris; design: dose 5 mg/kg, route subcutaneous
[12] = Drug level in Beagle dog liver at 5 mg/kg, sc after 6 months; assay type: ADME, organism-based, Canis lupus familiaris; design: dose 5 mg/kg, route subcutaneous; settings: read-out: Drug uptake
[13] = Plasma concentration in male Beagle dog at 400 mg/kg, sc after 1 month; assay type: ADME, organism-based, Canis lupus familiaris; design: dose 400 mg/kg, route subcutaneous
Canis familiaris [14] = assay: Toxicity in Beagle dog assessed as white deposits at 20 mg/kg administered intramuscularly after 3 months; assay type: organism-based, Canis lupus familiaris; design: dose 20 mg/kg, route intramuscular; settings: in vivo, im, 2191.5 h
[15] = Plasma concentration in Beagle dog at 5 mg/kg, sc after 6 months; assay type: ADME, organism-based, Canis lupus familiaris; design: dose 5 mg/kg, route subcutaneous
[16] = Drug level in Beagle dog lymph node popliteal at 5 mg/kg, sc after 1 month; assay type: ADME, organism-based, Canis lupus familiaris; design: dose 5 mg/kg, route subcutaneous; settings: read-out: Drug uptake
[17] = AUC (0 to last) in male dog at 400 mg administered intramuscularly after 85 days; settings: plasma, im
[18] = Drug level in Beagle dog muscle at injected site at 5 mg/kg administered intramuscularly after 3 months; assay type: ADME, organism-based, Canis lupus familiaris, Muscle tissue; design: dose 5 mg/kg, route intramuscular; settings: im, read-out: Drug uptake
[19] = AUC (0 to infinity) in Sprague-Dawley rat at 1.25 mg/kg, iv after 2 days; assay type: ADME, organism-based; design: time infinity, dose 1.25 mg/kg, route intravenous; settings: plasma
[20] = Drug level in Beagle dog skin at injected site at 5 mg/kg administered intramuscularly after 3 months; assay type: ADME, organism-based, Canis lupus familiaris, Zone of skin; design: dose 5 mg/kg, route intramuscular; settings: im, read-out: Drug uptake
Canis familiaris [21] = assay: Toxicity in Beagle dog assessed as inflammatory signs at 20 mg/kg administered intramuscularly after 3 months; assay type: organism-based, Canis lupus familiaris; design: dose 20 mg/kg, route intramuscular; settings: in vivo, im, 2191.5 h
[22] = Ratio of drug level in spleen to plasma in female Beagle dog at 400 mg/kg administered intramuscularly after 1 month; assay type: ADME, organism-based, Canis lupus familiaris; design: dose 400 mg/kg, route intramuscular; settings: im
[23] = Ratio of drug level in spleen to plasma in male Beagle dog at 400 mg/kg administered intramuscularly after 1 month; assay type: ADME, organism-based, Canis lupus familiaris; design: dose 400 mg/kg, route intramuscular; settings: im
[24] = Drug level in Beagle dog lymph node iliac at 5 mg/kg administered intramuscularly after 1 month; assay type: ADME, organism-based, Canis lupus familiaris; design: dose 5 mg/kg, route intramuscular; settings: im, read-out: Drug uptake
[25] = Drug level in female Beagle dog thymus at 200 mg/kg, sc after 3 months; assay type: ADME, organism-based, Canis lupus familiaris; design: dose 200 mg/kg, route subcutaneous; settings: read-out: Drug uptake
[26] = Drug level in female Beagle dog spleen at 200 mg/kg administered intramuscularly after 1 month; assay type: ADME, organism-based, Canis lupus familiaris; design: dose 200 mg/kg, route intramuscular; settings: im, read-out: Drug uptake
[27] = Plasma concentration in female Beagle dog at 200 mg/kg administered intramuscularly after 1 month; assay type: ADME, organism-based, Canis lupus familiaris; design: dose 200 mg/kg, route intramuscular; settings: im, read-out: Drug uptake
[28] = Drug level in female Beagle dog thymus at 400 mg/kg administered intramuscularly after 3 months; assay type: ADME, organism-based, Canis lupus familiaris; design: dose 400 mg/kg, route intramuscular; settings: im, read-out: Drug uptake
[29] = Drug level in male Beagle dog spleen at 400 mg/kg, sc after 1 month; assay type: ADME, organism-based, Canis lupus familiaris; design: dose 400 mg/kg, route subcutaneous; settings: read-out: Drug uptake

Kp at 2191.5 h [1]: 1.9
concentration at 2191.5 h [2]: 46.1 ng/g
Kp at 4383 h [3]: 6.1
Cmax [5]: 119 ng/mL
Tmax [6]: 16 h
Tmax [7]: 8.3 h
concentration at 4383 h [8]: < 5 ng/g
concentration at 4383 h [9]: 48 ng/g
Kp at 730.5 h [10]: 3.2
Kp at 730.5 h [11]: 4.1
concentration at 4383 h [12]: 31.1 ng/g
concentration at 730.5 h [13]: 209 ng/mL
concentration at 4383 h [15]: 1.3 ng/mL
concentration at 730.5 h [16]: 68.2 ng/g
AUC(0-t) at 2040 h [17]: 281 µg·h/mL
concentration at 2191.5 h [18]: 142000 ng/g
AUC(0-inf) [19]: 1230 ng·h/mL
concentration at 2191.5 h [20]: 16.7 ng/g
Kp at 730.5 h [22]: 2.6
Kp at 730.5 h [23]: 2.2
concentration at 730.5 h [24]: 19000 ng/g
concentration at 2191.5 h [25]: 105 ng/g
concentration at 730.5 h [26]: 142 ng/g
concentration at 730.5 h [27]: 61 ng/g
concentration at 2191.5 h [28]: 109 ng/g
concentration at 730.5 h [29]: 569 ng/g
SMILES: Cc1cc(/C=C/C#N)cc(C)c1Nc1ccnc(Nc2ccc(C#N)cc2)n1 [RILPIVIRINE]
Activity (Canis familiaris [4]): Non-toxic
Activity (Canis familiaris [14]): Non-toxic
Activity (Canis familiaris [21]): Non-toxic

Reference: ChEMBL document CHEMBL1687756 (Antimicrob Agents Chemother, 2010)
